Paper PMC5665762, “Phase 1 study of veliparib with carboplatin and weekly paclitaxel in Japanese patients with newly diagnosed ovarian cancer” (Cancer Science, 2017)

Key:
[1] = test system: Japanese patients with newly diagnosed ovarian cancer; experiment: Phase 1 safety/tolerability: treatment-emergent adverse events, DLT, MTD, RP2D
Experimental: This was a phase 1, open‐label, multicenter, dose‐escalation study to evaluate the tolerability, safety, PK and preliminary efficacy of oral veliparib in combination with carboplatin and weekly paclitaxel in Japanese patients with ovarian cancer. Patients were assigned to treatment with veliparib at either 100 mg (dose level 1 [DL1]) or 150 mg (DL2) b.i.d. on days 1–21 of a 21‐day cycle. […] After completion of cycle 1, subsequent cycles were not begun until the patient's ANC was ≥1500/mm^3 and the platelet count ≥100 000/mm^3. Patients with ANC 1000–1499/mm^3 or platelet count 75 000–99 000/mm^3 (or both) could proceed to the next cycle of therapy with a predefined dose modification (Table S1). On day 8 or 15 of each cycle, another dose modification guideline was applied (Table S2). The patient's participation in the study was discontinued upon the third occurrence of hematologic toxicity that required dose modification per protocol. Treatment could be postponed for up to 21 days because of toxicity; longer toxicity‐related delay led to study discontinuation. Reduction of carboplatin and paclitaxel doses was permitted based on the toxicity observed (Table S3), which could necessitate discontinuation of either agent. At the investigator's discretion, patients who discontinued veliparib were […] to discontinue the study but could continue to receive carboplatin and paclitaxel as standard of care. The trial was conducted in accordance with good clinical practice, the International Conference on Harmonization guidelines, and the 1964 Declaration of Helsinki and its later amendments; written informed consent was obtained from all patients before study enrollment.
Dose escalation proceeded according to a 3 + 3 design to determine dose‐limiting toxicities (DLT), the maximum tolerated dose (MTD) and the RP2D. A minimum of 3 patients were enrolled at DL1. If none of these patients experienced a DLT, 3 more patients would be enrolled at DL2. If 1 or 2 patients experienced a DLT at DL1, 3 more patients would be enrolled at the same dose level. If ≤2 of 6 patients experienced a DLT, dose escalation would proceed to DL2. If ≥3 patients experienced a DLT, dose escalation would be stopped, with the following exceptions: (i) if 3 of 6 patients at DL1 experienced DLT, 3 more patients would enter the DL and the cohort be expanded to 9 patients, depending on a review of the specific DLT observed and discussion with the investigators; and (ii) if 3 of 9 patients at DL1 experienced DLT, escalation to DL2 would proceed, but if >3 of 9 patients experienced DLT, then dose escalation would stop.
Dose‐limiting toxicities were determined based on events that occurred during the DLT evaluation period from day 1 of cycle 1 through pre‐dosing on day 1 of cycle 2. A patient was considered to be evaluable for DLT assessment if they had completed cycle 1 with the assigned regimen or had prematurely discontinued cycle 1 or experienced an adverse event (AE) related to veliparib. AE that occurred after the DLT evaluation period were considered in dose‐escalation decisions and tolerability assessment. The MTD was defined as the highest dose level at which ≤2 of 6 or ≤3 of 9 patients experienced a DLT. The RP2D was determined on the basis of assessment of the observed toxicities, the MTD, the overall safety profile of the regimen, and the PK of veliparib. In the event that the MTD was not reached, the RP2D was to be defined on the basis of safety and PK data and would not be higher than the maximum administered dose. Any of the following events that were considered to have a reasonable possibility of being related to the administration of veliparib were defined as DLT: grade 4 neutropenia lasting more than 7 days; grade 4 thrombocytopenia; febrile neutropenia; any grade ≥3 nonhematologic toxicities except nausea, vomiting and diarrhea; and transient metabolic toxicities such as glucose changes, hypokalemia or hypophosphatemia.

[2] = test system: target lesions, ovarian cancer; experiment: Tumor response by RECIST version 1.1; assay type: in vivo, Japanese patients
Experimental: (§1) During the screening visit, a complete medical history (including a detailed oncology history) was collected. Study visits occurred on days 1, 8 and 15 of cycle 1 and each subsequent cycle; patients also attended for a final visit and a 30‐day follow‐up visit. AE monitoring was performed at each visit; most visits also included a physical examination and ECOG performance status evaluation. Toxicities were graded according to the NCI Common Terminology Criteria for Adverse Events version 4.03. For the determination of veliparib, carboplatin and paclitaxel PK, plasma samples were collected at multiple time points within 24 h of the first morning dose of veliparib on day 1 of cycle 1. The PK of carboplatin and paclitaxel were evaluated only with veliparib co‐administration. Values of the PK parameters of veliparib, carboplatin and paclitaxel, including the maximum observed plasma concentration (C max), time to C max (T max) and AUC, were determined by using noncompartmental methods. In addition to tumor assessment at baseline, tumor response was assessed by using the Response Evaluation Criteria In Solid Tumors (RECIST) version 1.113 every 9 weeks from day 1 of cycle 1 and at the final visit. The tumor marker cancer antigen 125 (CA‐125) was evaluated on day 1 of each cycle and at the final visit.

CA‐125 = experiment: Tumor marker CA-125 response (Gynecologic Cancer InterGroup definition); assay type: in vivo, Japanese patients
Experimental: as §1

[3] = test system: non‐small cell lung cancer; design: method as in PMID 26433581; settings: veliparib with carboplatin/paclitaxel, Japanese NSCLC patients, no more than 1 prior line of treatment; cited from earlier work
[4] = Plasma pharmacokinetics on day 1 of cycle 1 (noncompartmental); design: AUC(0-inf): dose or concentration left out as unconfirmed
Experimental: as §1

[5] = Total (both veliparib doses) + carboplatin/paclitaxel, N = 9, All grades
[6] = Total (both veliparib doses) + carboplatin/paclitaxel, N = 9, Grade 3 or 4
[7] = all 9 patients, regardless of relation to veliparib
[8] = veliparib 100 mg BID + carboplatin/paclitaxel, n = 3, All grades
[9] = veliparib 150 mg BID + carboplatin/paclitaxel, n = 6, All grades
[10] = veliparib dose 100 mg, day 1 of cycle 1, N 3, mean ± SD
[11] = veliparib dose 150 mg, day 1 of cycle 1, N 6, mean ± SD

## C[C@]1(c2nc3c(C(N)=O)cccc3[nH]2)CCCN1 [Veliparib]
[1]; [5]
  Nail disorder, TEAE: 2 (22) n (%)
  Nausea, TEAE: 6 (67) n (%)
  Neutropenia (including neutrophil count decreased), TEAE: 9 (100) n (%)
  Peripheral sensory neuropathy (including neuropathy peripheral), TEAE: 7 (78) n (%)
  Rash, TEAE: 2 (22) n (%)
  Stomatitis, TEAE: 2 (22) n (%)
  Thrombocytopenia (including platelet count decreased), TEAE: 5 (56) n (%)
  Vomiting, TEAE: 4 (44) n (%)
[1]; [6]
  Alopecia, TEAE: 0 n (%)
  Anemia, TEAE: 5 (56) n (%)
  Any AE, TEAE: 7 (78) n (%)
  Arthralgia, TEAE: 0 n (%)
  Constipation, TEAE: 0 n (%)
  Decreased appetite, TEAE: 0 n (%)
  Dry skin, TEAE: 0 n (%)
  Dysgeusia, TEAE: 0 n (%)
  Leukopenia (including white blood cell count decreased), TEAE: 4 (44) n (%)
  Malaise, TEAE: 0 n (%)
  Nail disorder, TEAE: 0 n (%)
  Nasopharyngitis, TEAE: 0 n (%)
  Nausea, TEAE: 0 n (%)
  Neutropenia (including neutrophil count decreased), TEAE: 7 (78) n (%)
  Peripheral sensory neuropathy (including neuropathy peripheral), TEAE: 0 n (%)
  Rash, TEAE: 0 n (%)
  Stomatitis, TEAE: 0 n (%)
  Vomiting, TEAE: 0 n (%)
[1]; all 9 patients
  AE that led to death: no AE that led to death
[1]; [7]
  alopecia, TEAE of any grade: 89%
  anemia, TEAE of any grade: 67%
  anemia, grade 3 or 4 TEAE: 56%
  malaise, TEAE of any grade: 67%
  nausea, TEAE of any grade: 67%
  neutropenia, TEAE of any grade: 100%
[1]; female, human, in vivo
  neutropenia, grade 3 or 4 TEAE: 78%
  peripheral sensory neuropathy, TEAE of any grade: 78%
[1]; in combination with carboplatin and weekly paclitaxel, determined on safety and PK data
  recommended phase 2 dose (RP2D): 150 mg b.i.d.
[1]; in vivo
  dose‐limiting toxicities (DLT): No DLT were observed at any dose level
  veliparib dose reduction: No patient needed a veliparib dose reduction
[1]; overall, 6 of 9 patients
  veliparib discontinued because of a TEAE: 67%
[1]; [8]
  Alopecia, TEAE: 3 (100) n (%)
  Anemia, TEAE: 2 (67) n (%)
[1]; [9]
  Alopecia, TEAE: 5 (83) n (%)
  Anemia, TEAE: 4 (67) n (%)
[1]; veliparib up to 150 mg b.i.d. with carboplatin and weekly paclitaxel
  maximum tolerated dose (MTD) of the regimen: not reached
[2]; 5 assessed patients, veliparib plus carboplatin and paclitaxel
  objective response rate: 100%
[2]; both cohorts, of 5 assessed patients
  partial response: 4 patients
[2]; overall, range −100.00% to −50.00%
  median best percentage change from baseline in the sum of target lesions: −53.51%
[2]; veliparib 100 mg b.i.d.
  partial response: 1 patients
[2]; veliparib 100 mg b.i.d. cohort, of 5 assessed patients
  complete response: One patient had a complete response
[2]; veliparib 100 mg b.i.d. cohort, range −100.00% to −53.51%
  median best percentage change from baseline in the sum of target lesions: −76.75%
[2]; veliparib 150 mg b.i.d.
  partial response: 3 patients
[2]; veliparib 150 mg b.i.d. cohort, range −90.29% to −50.00%
  median best percentage change from baseline in the sum of target lesions: −51.57%
CA‐125; 8 of 9 patients
  CA‐125 response (Gynecologic Cancer InterGroup definition): 89%
CA‐125; overall, range −99.79% to −34.96%
  median best percentage change from baseline in CA‐125: −89.33%
CA‐125; veliparib 100 mg b.i.d. cohort, range −97.31% to −65.25%
  median best percentage change from baseline in CA‐125: −94.24%
CA‐125; veliparib 150 mg b.i.d. cohort, range −99.79% to −34.96%
  median best percentage change from baseline in CA‐125: −84.87%
[3]
  objective response rate: 55%
[4]; cross‐study comparison
  PK interaction between veliparib and carboplatin or paclitaxel: no PK interaction
[4]; [10]
  AUC0–8/dose: 37.2 ± 4.37 ng·h/mL/mg
  C max/dose: 9.73 ± 1.63 ng/mL/mg
[4]; [11]
  AUC0–8/dose: 36.7 ± 8.10 ng·h/mL/mg
  C max/dose: 7.19 ± 1.16 ng/mL/mg

## N.N.O=C([O-])C1(C(=O)[O-])CCC1.[Pt+2] [carboplatin]
[1]; 7 of 9, beginning at cycle 2, due to hematologic toxicities
  patients needing ≥1 carboplatin dose reduction: 78%
[4]; carboplatin measured as total platinum, AUC 6 mg/mL•min i.v. day 1 with veliparib, mean (SD)
  C max: 23.3 (4.28) μg/mL
[4]; carboplatin measured as total platinum, i.v. day 1 with veliparib, mean (SD)
  AUC from time zero to infinity (AUC∞): 5.30 (0.491) mg•min/mL

## CC(=O)O[C@H]1C(=O)[C@@]2(C)[C@H]([C@H](OC(=O)c3ccccc3)[C@]3(O)C[C@H](OC(=O)[C@H](O)[C@@H](NC(=O)c4ccccc4)c4ccccc4)C(C)=C1C3(C)C)[C@]1(OC(C)=O)CO[C@@H]1C[C@@H]2O [paclitaxel]
[4]; female, human, in vivo
  AUC(0-inf): 5320 ng·h/mL
  Cmax: 3300 ng/mL
